Article PMC11642486 (International Journal of Molecular Sciences, 2024)
Where a name gives a salt, the structure may show the parent alone. Read-outs that look alike come from different tables or passages of the source.

Experiments:
[1] = system: BV-2 immortalized murine cell line (microglia); assay: Cell viability assay (CellTiter-Glo) in microglia; type: cell-based
Protocol: Cell viability was measured at 24, 48, and 72 h of treatment with different drug concentration ranges. For each cellular type, we determined the half-maximal inhibitory concentration (IC50) of each drug. In neurons, as a non-proliferative primary culture, the IC50 was defined as the drug concentration able to diminish cell viability by 50% with respect to the vehicle-treated control. In microglia, as a proliferative cell line, the IC50 was defined as the drug concentration able of inhibiting by 50% cellular proliferation with respect to the vehicle-treated control.
Primary hippocampal neurons were obtained from Wistar rats on embryonic day 18. Briefly, embryos were removed from the womb under sterile conditions and decapitated to dissect the brains. Hippocampi were isolated at 4 °C in Hank’s balanced salt solution (HBSS) without calcium and magnesium, supplemented with 10 mM HEPES buffered saline and 100 U/mL of penicillin-streptomycin. The hippocampi were mechanically disaggregated using fire-polished pipettes and plated for 2–4 h in neuronal plating medium composed of minimum essential medium (MEM) enriched with 0.6% D-glucose and 10% horse serum. Neuronal plating medium was replaced by neurobasal medium supplemented with 1X B-27 and 2 mM L-glutamine. Neurons were grown for 7 days prior to the experiments. For the microglial cells, we used the BV-2 immortalized murine cell line. Microglial cells were cultured in Dulbecco’s modified Eagle medium (DMEM) with 4.5 g/L D-glucose, 2 mM L-glutamine, 100 U/mL of penicillin-streptomycin, and 10% heat-inactivated fetal bovine serum. Cells were maintained at 37 °C in a humidified incubator with 5% CO2. All culture media were purchased from Thermo Fisher Scientific (Waltham, MA, USA).
Neurons and microglia were both seeded at a density of 10,000 cells/well in 96-well plates previously treated with 0.1 mg/mL of poly-L-lysine (Sigma-Aldrich). […] Cell viability was determined at 24, 48, and 72 h. The percentage of viable cells was quantified using the CellTiter-Glo® Luminescent Cell Viability Assay (Promega Biotech Ibérica, Madrid, Spain) following the instructions by the manufacturer. The […] of the cell culture media alone was subtracted as the background from all readings. Cell viability in the drug-treated cells was normalized to their respective vehicle controls. Experiments were repeated three times, each condition in triplicate.
Statistical analysis was performed using Prism 8 software (GraphPad, Boston, MA, USA). For the cell viability assays, a linear regression analysis was made with logarithmic transformation of the drug concentrations in the X-axis. The coefficient of determination (R²) was calculated as a measurement of the adjustment of the data to the regression model. The Mann–Whitney test was used to compare two different conditions. The Kruskal–Wallis test was used to compare the different concentrations of each drug against the vehicle or LPS. Statistical significance was established at p < 0.05.

neurons = assay: Neuronal apoptosis (TUNEL) induced by conditioned medium of LPS-activated microglia; type: cell-based, Wistar rats; details: neurons pre-treated 4 h, then 4 h with supernatant of LPS + drug microglia (48 h)
Protocol: Given that physiologically, if any of the drugs enter the BBB, both the neurons and microglia will be exposed to them, we decided to study the synergistic effects (direct antioxidant properties in neurons with indirect anti-inflammatory effects in microglia) of the drugs in both cells. […] Representative confocal microscopy images of the apoptosis assay are shown in Supplementary Figure S2.
The apoptosis of neurons was determined using the DeadEnd™ Fluorometric TUNEL System (Promega Biotech Ibérica, Madrid, Spain) following the manufacturer’s instructions. Neurons were seeded on glass coverslips previously treated with 1 mg/mL of poly-L-lysine at a density of 500,000 cells/well. […] Then, the supernatants of 48 h LPS-treated or LPS + drug (at the same drug concentrations as in neurons) microglia cells were added to the neuronal culture and incubated for an additional 4 h. Apoptosis was determined using Leica TCS SP5 confocal microscopy and quantified using ImageJ software. For each experimental condition, five random fields were captured to count the number of positive fluorescent cells (apoptotic) divided by the total number of cells identified by the nuclear fluorescent staining TO-PRO. Each experiment was repeated three times.

[2] = system: LPS-activated microglia cells; assay: RNA-sequencing of LPS-activated microglia cells treated with drug; type: cell-based, mouse; details: 30 µM DMF
Protocol: Microglia cells were activated with LPS and treated with the same drug concentrations at the same timepoints. Each experiment was repeated three times. RNA was extracted using the Maxwell® 16 LEV simplyRNA Cells Kit and the robotic platform Maxwell® 16 (both from Promega Biotech Ibérica) following the manufacturer’s instructions. RNA-sequencing was performed as previously described using the NovaSeq 6000 Sequencing System (Illumina, San Diego, CA, USA) by pair-end (150 x 2) and at a sequencing depth of 20 million reads per sample [60]. FastQC v0.12.1 and Cutadapt v4.4 were used for quality control of the raw reads and removal of the adapter sequences, respectively. Trimmomatic v0.39 was employed to further select trimmed reads larger than 20 nucleotides and with a sequencing quality score greater than 30 [62]. Reads were aligned with HISAT2 v2.2.1 to the mouse or rat genome assemblies GRCm39 and mRatBN7.2, respectively. Mapped reads were annotated using Ensembl gene annotation v110 for the mouse genome and v111 for the rat genome and counts quantified using HTSeq v2.0.3 [63]. Gene counts were analyzed using principal components with custom R scripts (R version 4.3.1). DESeq2 v1.40.2 was used for differential expression analysis.

[3] = Mus musculus, Microglia, 24 h, microglia, 24 h, concentration inhibiting cellular proliferation by 50% vs vehicle, read-out: IC50 (cell viability)
[4] = Mus musculus, Microglia, 48 h, microglia, 48 h, concentration inhibiting cellular proliferation by 50% vs vehicle, read-out: IC50 (cell viability)
[5] = Mus musculus, Microglia, 72 h, microglia, 72 h, concentration inhibiting cellular proliferation by 50% vs vehicle, read-out: IC50 (cell viability)

SMILES | number of DEGs vs cells treated with LPS alone ([2]; 4 h, 30 µM MMF, 6 µM CBD) | number of downregulated DEGs vs LPS alone ([2]; 24 h, 6 µM CBD) | number of upregulated DEGs vs LPS alone ([2]; 24 h, 6 µM CBD) | number of DEGs vs cells treated with LPS alone ([2]; 24 h, 30 µM MMF, 6 µM CBD) | IC50 [1, 3] [µM] | IC50 [1, 4] [µM] | IC50 [1, 5] [µM] | effect on neuronal apoptosis, in words (neurons; 10 µM) | effect on neuronal apoptosis, in words (neurons; 30 µM) | number of downregulated DEGs vs LPS alone ([2]; 4 h, 30 µM MMF) | number of upregulated DEGs vs LPS alone ([2]; 4 h, 30 µM MMF) | other results
C=C(C)[C@@H]1CCC(C)=C[C@H]1c1c(O)cc(CCCCC)cc1O [CBD, cannabidiol] | 2 | 1265 | 1345 | 2610 | – | – | – | – | – | – | – | IC50 ([1]; Mus musculus, Microglia, 24 h, read-out: IC50 (cell viability), microglia, 24 h, concentration inhibiting cellular proliferation by 50% vs vehicle): 12 µM; IC50 ([1]; Mus musculus, Microglia, 48 h, read-out: IC50 (cell viability), microglia, 48 h, concentration inhibiting cellular proliferation by 50% vs vehicle): 12.2 µM; IC50 ([1]; Mus musculus, Microglia, 72 h, read-out: IC50 (cell viability), microglia, 72 h, concentration inhibiting cellular proliferation by 50% vs vehicle): 11.8 µM; IC50 ([1]; Mus musculus, Microglia, 72 h, read-out: IC50 (cell viability), microglia, all of the studied timepoints (24, 48, 72 h)): ~12 µM; effect on neuronal apoptosis, in words (neurons; 7 µM): prevented neuronal apoptosis
COC(=O)/C=C/C(=O)OC [DMF, Dimethyl fumarate] | 542 | 146 | 230 | 376 | 37.2 | 40.8 | 73.2 | significantly prevented neuronal apoptosis | not at 30 µM | 340 | 202 | IC50 ([1]; microglia, 24 h, concentration inhibiting cellular proliferation by 50% vs vehicle, read-out: IC50 (cell viability)): 37 µM; IC50 ([1]; microglia, 72 h, concentration inhibiting cellular proliferation by 50% vs vehicle, read-out: IC50 (cell viability)): 73 µM; number of DEGs with strong downregulation ([2]; 24 h): 67; number of DEGs with strong upregulation ([2]; 24 h): 128
COC(=O)/C=C/C(=O)O [MMF, monomethyl fumarate] | eight | – | – | could not detect any transcriptomic changes | 49.5 | 41.7 | 56.6 | also prevented neuronal apoptosis | also protected neurons from apoptosis | three | five | IC50 ([1]; Mus musculus, Microglia, 72 h, microglia, all of the studied timepoints (24, 48, 72 h), read-out: IC50 (cell viability)): ~50 µM
